# Measured values published in patent publication US20260199365A1, “BIS-SULFONAMIDE SHIP1 ACTIVATORS” (The Research Foundation for the State University of New York, priority 2022, published 2026).
# “Also recorded” adds a separate entry of the source.
# Target: T1, recombinant human truncated SHIP1 (tSHIP1) (Homo sapiens, UniProt Q92835)
# T1 construct: tSHIP1 (SHIP1, residues 397-864) was amplified from pET24TEV-tSHIP1; His tag; made in house; host or cells: E. coli BL21
# T1 sequence (Q92835 397-864): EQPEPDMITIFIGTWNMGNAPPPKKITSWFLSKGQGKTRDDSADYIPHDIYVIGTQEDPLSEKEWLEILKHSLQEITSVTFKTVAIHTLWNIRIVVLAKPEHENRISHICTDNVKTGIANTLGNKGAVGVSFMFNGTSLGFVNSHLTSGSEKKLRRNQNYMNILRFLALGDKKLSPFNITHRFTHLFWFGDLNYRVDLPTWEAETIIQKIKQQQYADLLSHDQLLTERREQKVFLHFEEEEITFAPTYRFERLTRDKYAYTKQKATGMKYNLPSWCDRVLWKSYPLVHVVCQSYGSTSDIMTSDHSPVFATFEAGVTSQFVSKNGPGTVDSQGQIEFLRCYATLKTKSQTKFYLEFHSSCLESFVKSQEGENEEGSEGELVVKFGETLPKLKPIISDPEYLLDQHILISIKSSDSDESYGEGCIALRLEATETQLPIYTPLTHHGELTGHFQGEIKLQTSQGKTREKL
# Test: Malachite Green Phosphatase Release Assay (SHIP1 phosphatase activity)
# Type: biochemical
# Conditions: for Phosphatase activity in the Malachite Green Assay, analog concentration 250 μM: 250 μM analog; for Phosphatase activity in the Malachite Green Assay, analog concentration 250 μM / Phosphatase activity in the Malachite Green Assay, analog concentration 500 μM / Phosphatase activity in the Malachite Green Assay, analog concentration 125 μM: 100 μM PI(3,4,5)P3-diC8 substrate, normalized to vehicle control (DMSO) = 100%; for Phosphatase activity in the Malachite Green Assay, analog concentration 500 μM: 500 μM analog, >100% activation, <100% inhibition; for SHIP1 activator activity in the malachite green assay: discussion of Table 4 (125-500 μM); for Phosphatase activity in the Malachite Green Assay, analog concentration 125 μM: 125 μM analog
# Procedure: ^aPhosphatase activity for SHIP1 and SHIP2 enzyme as determined in the malachite green assay. Results were normalized to the phosphatase activity level from vehicle control (DMSO) used as 100% activity. Values >100% are attributed to activation, while values <100% show inhibition of the enzyme compared to the control. The assay was performed at the indicated concentration of the small molecule with 100 μM PI(3,4,5)P3-diC8 as the substrate. ^bnd=not determined, compound 23 was insoluble.
# Cloning and expression of tSHIP1 of truncated human SHIP1 protein (tSHIP1) from human whole blood mRNA have been previously described (see Brooks R, Iyer, S., Akada, H., Neelam, S., Russo, C. M., Chisholm, J. D., and Kerr W. G. Coordinate Expansion of Murine Hematopoietic and Mesenchymal Stem Cell Compartments by SHIPi Stem Cells 2015; 33:848). Briefly, tSHIP1 (SHIP1, residues 397-864) was amplified from pET24TEV-tSHIP1. Plasmids were extracted with Midi Prep (Qiagen) and sequences were verified by sequencing of the entire expression regions. The plasmids were then transformed into E. coli BL21 (New England Biolabs). Fresh colonies were amplified in 1 L LB at 37° C., shaking at 250 rpm until OD600 nm reached 0.6. Protein expression was induced with […] IPTG and incubation was continued at 16° C., shaking at 250 rpm for 16 h. Following centrifugation, bacteria pellets were stored overnight at −20° C. Protein was extracted form bacterial cell pellet using BugBuster HT (Millipore), according to manufacturer's recommendations. The His-tagged protein was purified by FPLC using HisTrapHP 5 ml column (Cytiva Life Sciences) at a 5 ml/min flow rate and 10 mM-1M imidazole gradient in Buffer A (20 mM Tris pH 8.0, 300 mM NaCl, 10 mM imidazole, 5 mM β-mercaptoethanol). Fractions containing active protein by Malachite Green Phosphatase Release Assay (Echelon, see below) were pooled, concentrated and buffer exchanged to reduce imidazole concentration by centrifugation using Pierce Protein Concentrators 30KMWCO PES, (ThermoFisher Scientific). Protein was aliquoted and stored at −80° C. in a mixture of Buffer A (without β-ME) and 50% glycerol.
# Malachite Green Phosphatase Release Assays: Malachite Green Phosphatase Release Assays (Echelon Biosciences) were performed with recombinant human truncated SHIP1 (tSHIP1) (Brooks, 2015) and SHIP2 (Echelon Biosciences). Briefly, serial dilutions of the compounds dissolved in DMSO were added to the recombinant enzymes diluted in reaction buffer Rx (50 mM Hepes pH 7.4, 150 mM NaCl, 1 mM MgCl2, 0.25 mM EDTA) in triplicate reactions in 96-well plates. Reactions were incubated for 2 min at room temperature. […] of 1 mM Phosphatidylinositol 3,4,5-trisphosphate diC8 (PI(3,4,5)P3diC8) (Echelon Biosciences) was added to each reaction to a final concentration of 100 μM in a final volume of […]. Following 20 min incubation at 37° C., 100 μL of Malachite Green Solution (Echelon Biosciences) was added to each well and plates were incubated at room temperature in the dark for 15 min. Plates were then read at 620 nm on a plate reader (Synergy 2, BioTek).
smiles,measurement,setting,value
O=C(Nc1ccc(S(=O)(=O)N2CCCCC2)cc1)[C@@H]1CCCN1S(=O)(=O)c1ccc(C(F)(F)F)cc1 (stereo in doubt) [Compound K423],"Malachite (SHIP1), 125 μM","bis-sulfonamide hybrids, 125 μM",99%
same,"Malachite (SHIP1), 250 μM","bis-sulfonamide hybrids, 250 μM",109%
same,"Malachite (SHIP1), 500 μM","bis-sulfonamide hybrids, 500 μM",136%
"Cc1sc(S(=O)(=O)N2CCOCC2)cc1NC(=O)CNS(=O)(=O)c1ccc(F)cc1 [Compound K367, 2-(4-Fluorobenzenesulfonamido)-N-[2-methyl-5-(morpholine-4-sulfonyl)thiophen-3-yl]acetamide]","Phosphatase activity in the Malachite Green Assay, analog concentration 250 μM",,93%
same,"Phosphatase activity in the Malachite Green Assay, analog concentration 500 μM",,94%
same,SHIP1 activator activity in the malachite green assay,,loss of activity
"Cc1sc(S(=O)(=O)N2CCSCC2)cc1NC(=O)CNC(=O)c1ccccc1 [Compound K371, N-[2-methyl-5-(thiomorpholine-4-sulfonyl)thiophen-3-yl]-2-(phenylformamido) acetamide]","Phosphatase activity in the Malachite Green Assay, analog concentration 125 μM",,97%
same,"Phosphatase activity in the Malachite Green Assay, analog concentration 250 μM",,94%
same,"Phosphatase activity in the Malachite Green Assay, analog concentration 500 μM",,83%
same,SHIP1 activator activity in the malachite green assay,,loss of potency
"Cc1sc(S(=O)(=O)N2CCSCC2)cc1NC(=O)CNC(=O)OCc1ccccc1 [Compound K373, Benzyl N-({[2-methyl-5-(thiomorpholine-4-sulfonyl)thiophen-3-yl]carbamoyl}methyl) carbamate]","Phosphatase activity in the Malachite Green Assay, analog concentration 125 μM",,93%
same,"Phosphatase activity in the Malachite Green Assay, analog concentration 250 μM",,102%
same,"Phosphatase activity in the Malachite Green Assay, analog concentration 500 μM",,105%
same,SHIP1 activator activity in the malachite green assay,,loss of potency
"Cc1sc(S(=O)(=O)N2CCSCC2)cc1NC(=O)CNS(=O)(=O)c1ccc(I)cc1 [Compound K374, 2-(4-Iodobenzenesulfonamido)-N-[2-methyl-5-(thiomorpholine-4-sulfonyl)thiophen-3-yl]acetamide]","Phosphatase activity in the Malachite Green Assay, analog concentration 125 μM",,99%
same,"Phosphatase activity in the Malachite Green Assay, analog concentration 250 μM",,83%
same,"Phosphatase activity in the Malachite Green Assay, analog concentration 500 μM",,119%
same,SHIP1 activator activity in the malachite green assay,,loss of bioactivity
"Cc1sc(S(=O)(=O)N2CCSCC2)cc1NC(=O)CNS(=O)(=O)c1ccc([N+](=O)[O-])cc1 [Compound K375, N-[2-methyl-5-(thiomorpholine-4-sulfonyl)thiophen-3-yl]-2-(4-nitrobenzenesulfonamido) acetamide]","Phosphatase activity in the Malachite Green Assay, analog concentration 125 μM",,108%
same,"Phosphatase activity in the Malachite Green Assay, analog concentration 250 μM",,115%
same,"Phosphatase activity in the Malachite Green Assay, analog concentration 500 μM",,150%
same,SHIP1 activator activity in the malachite green assay,,increase in the activity
"Cc1sc(S(=O)(=O)N2CCSCC2)cc1NC(=O)CNS(=O)(=O)c1ccccc1 [Compound K376, 2-Benzenesulfonamido-N-[2-methyl-5-(thiomorpholine-4-sulfonyl)thiophen-3-yl]acetamide]","Phosphatase activity in the Malachite Green Assay, analog concentration 125 μM",,104%
same,"Phosphatase activity in the Malachite Green Assay, analog concentration 250 μM",,106%
same,"Phosphatase activity in the Malachite Green Assay, analog concentration 500 μM",,107%
same,SHIP1 activator activity in the malachite green assay,,loss of bioactivity
Cc1sc(S(=O)(=O)N2CC[S+]([O-])CC2)cc1NC(=O)CNS(=O)(=O)c1ccc(F)cc1 [Compound K377],"Phosphatase activity in the Malachite Green Assay, analog concentration 125 μM",,98%
same,"Phosphatase activity in the Malachite Green Assay, analog concentration 250 μM",,89%
same,"Phosphatase activity in the Malachite Green Assay, analog concentration 500 μM",,80%
same,SHIP1 activator activity in the malachite green assay,listed as 22,no activity as a SHIP activator; also recorded: some inhibition of SHIP1
"Cc1sc(S(=O)(=O)N2CCSCC2)cc1NC(=O)CN [Compound K378, 2-Aminotrifluoroacetate-N-[2-methyl-5-(thiomorpholine-4-sulfonyl)thiophene-3-yl]acetamide]","Phosphatase activity in the Malachite Green Assay, analog concentration 125 μM",,103%
same,"Phosphatase activity in the Malachite Green Assay, analog concentration 250 μM",,104%
same,"Phosphatase activity in the Malachite Green Assay, analog concentration 500 μM",,107%
same,SHIP1 activator activity in the malachite green assay,,reduced effect on SHIP activation
Cc1sc(S(=O)(=O)N2CCSCC2)cc1N [Compound K381],"Phosphatase activity in the Malachite Green Assay, analog concentration 125 μM",,109%
same,"Phosphatase activity in the Malachite Green Assay, analog concentration 250 μM",,107%
same,"Phosphatase activity in the Malachite Green Assay, analog concentration 500 μM",,113%
same,SHIP1 activator activity in the malachite green assay,,reduced effect on SHIP activation
"CCN(CC)S(=O)(=O)c1cc(NC(=O)CNS(=O)(=O)c2ccc(F)cc2)c(C)s1 [Compound K383, N-[5-(Diethylsulfamoyl)-2-methylthiophen-3-yl]-2-(4-fluorobenzenesulfonamido) acetamide]","Phosphatase activity in the Malachite Green Assay, analog concentration 125 μM",,101%
same,"Phosphatase activity in the Malachite Green Assay, analog concentration 250 μM",,93%
same,"Phosphatase activity in the Malachite Green Assay, analog concentration 500 μM",,109%
"Cc1sc(S(=O)(=O)N2CCSCC2)cc1NC(=O)[C@@H](C)NS(=O)(=O)c1ccc(F)cc1 [Compound K386, (2R)-2-(4-Fluorobenzenesulfonamido)-N-[2-methyl-5-(thiomorpholine-4-sulfonyl)thiophen-3-yl]propanamide]","Phosphatase activity in the Malachite Green Assay, analog concentration 250 μM",,108%
same,"Phosphatase activity in the Malachite Green Assay, analog concentration 500 μM",,116%
"Cc1sc(S(=O)(=O)N2CCCC2)cc1NC(=O)CNS(=O)(=O)c1ccc(F)cc1 [Compound K387, 2-(4-Fluorobenzenesulfonamido)-N-[2-methyl-5-(pyrrolidine-1-sulfonyl)thiophen-3-yl]acetamide]","Phosphatase activity in the Malachite Green Assay, analog concentration 125 μM",,100%
same,"Phosphatase activity in the Malachite Green Assay, analog concentration 250 μM",,97%
same,"Phosphatase activity in the Malachite Green Assay, analog concentration 500 μM",,90%
same,SHIP1 activator activity in the malachite green assay,,loss of activity
"Cc1sc(S(=O)(=O)N(C)C)cc1NC(=O)CNS(=O)(=O)c1ccc(F)cc1 [Compound K388, N-[5-(Dimethylsulfamoyl)-2-methylthiophen-3-yl]-2-(4-fluorobenzenesulfonamido) acetamide]","Phosphatase activity in the Malachite Green Assay, analog concentration 125 μM",,100%
same,"Phosphatase activity in the Malachite Green Assay, analog concentration 250 μM",,97%
same,"Phosphatase activity in the Malachite Green Assay, analog concentration 500 μM",,94%
"Cc1sc(S(=O)(=O)N2CCSCC2)cc1NC(=O)[C@H](C)NS(=O)(=O)c1ccc(F)cc1 [Compound K389, (2S)-2-(4-Fluorobenzenesulfonamido)-N-[2-methyl-5-(thiomorpholine-4-sulfonyl)thiophen-3-yl]propanamide]","Phosphatase activity in the Malachite Green Assay, analog concentration 125 μM",,89%
same,"Phosphatase activity in the Malachite Green Assay, analog concentration 250 μM",,118%
same,"Phosphatase activity in the Malachite Green Assay, analog concentration 500 μM",,132%
